Holding throughout (format): functional, Anura
Holding throughout (set-up): scale not given: the % may be the effect or the level left

Assay [1] relates to Zone of skin. Description: Melanocyte stimulating activity in frog skin assessed as decrease in reflectance at 5.4 ng relative to control.
The subject of assay [2] is Zone of skin. Description: Melanocyte stimulating activity in frog skin assessed as decrease in reflectance at 2.7 to 8.1 ng relative to camel betaC2-MSH.
The subject of assay [3] is Zone of skin. Briefly: Melanocyte stimulating activity in frog skin assessed as decrease in reflectance at 2.7 ng relative to control.
The test system of assay [4] is Zone of skin. Description: Melanocyte stimulating activity in frog skin assessed as decrease in reflectance at 1.8 ng relative to control.
Assay [5] has as its system Zone of skin. Briefly: Melanocyte stimulating activity in frog skin assessed as decrease in reflectance at 8.1 ng relative to control.
Assay [6] has as its system Zone of skin. Description: Melanocyte stimulating activity in frog skin assessed as decrease in reflectance at 6.9 ng relative to control.
For assay [7], the system named is Zone of skin. Briefly: Melanocyte stimulating activity in frog skin assessed as decrease in reflectance at 2.3 ng relative to control.
Assay [8] deals with Zone of skin. Briefly: Melanocyte stimulating activity in frog skin assessed as decrease in reflectance at 2.7 to 8.1 ng relative to bovine beta-MSH.

On to H-DGGPYKMEHFRWGSPPKD-OH, for which the Activity in the assay with Zone of skin [1] worked out at 53%; in the assay on Zone of skin [2], 87.8%; in the assay with Zone of skin [3], 36.4%; with Zone of skin [4], 28.4%; in the assay on Zone of skin [5], 56.5%.
Take H-DSGPYKMEHFRWGSPPKD-OH: the Activity in the assay with Zone of skin [6] turned out to be 44.6%; with Zone of skin [7], 29.1%; in the assay with Zone of skin [2], 105.6%; in the assay on Zone of skin [3] it was 30.1%; in the assay on Zone of skin [8], 120.2%; in the assay on Zone of skin [5], 49.6%.

(Values after ChEMBL document CHEMBL3272243, “Synthesis and biological activity of camel and bovine beta-melanotropins” (1976).)
